Results on nine compounds are retold here after EP4596561A1, “PHOSPHORUS-CONTAINING COMPOUND, PHARMACEUTICAL COMPOSITION AND USE THEREOF” (Suzhou Genhouse Bio Co., Ltd., priority 2022, dated 2024).

For orientation: MRT means a mean duration of stay, worked out from the concentration-time curve. As usually defined, the Cmax is the highest concentration seen after dosing.

The nature of series [1]: Stability test in liver microsomes. The format is in vitro ADME. The settings on record: Human liver microsomes, 0.5 mg/mL, 1.0 µM substrate. As for the experimental part:
Phase I metabolic stability of the test compounds in liver microsomes of CD-1 mice, Sprague-Dawley rats, and humans was assessed.
The animal and human liver microsomes used in the test system were purchased from Xenotech, Corning, or other qualified suppliers and stored in a freezer at a temperature below -60 °C prior to use. The information of the animal and human liver microsomes used was as follows:
The test samples and the reference compounds were separately incubated with animal and human liver microsomes at 37±1 °C for a period of incubation time of up to 60 min. The samples were taken out at the indicated time points, and the reaction was stopped with acetonitrile or another organic solvent containing an internal standard. After centrifugation, the resulting supernatants were assayed by the liquid chromatography-tandem mass spectrometry (LC-MS/MS) method.
Microsomes of each species were diluted into a 2× working solution with a 100 mM potassium phosphate buffer. […]
Incubation was performed in a 96-well plate. Eight incubation plates were prepared and designated T0, T5, T15, T30, T45, T60, Blank60, and NCF60, respectively. The first 6 plates corresponded to reaction time points of 0 min, 5 min, 15 min, 30 min, 45 min, and 60 min, respectively. No test sample or reference compound was added to the Blank60 plate, and samples were taken after 60 min of incubation. In the NCF60 plate, incubation was performed for 60 min using the potassium phosphate buffer instead of the NADPH regeneration system solution. Three replicates were made for samples in all conditions.
The microsomes and the test sample or reference compound were mixed, and then the incubation plates Blank60, T5, T15, T30, T45, and T60 except for T0 and NCF60 were placed in a 37 °C water bath for pre-incubation for about 10 min. In the incubation plate T0, a stop solution was first added, followed by the addition of the NADPH regeneration system working solution, and 98 µL of the potassium phosphate buffer was added to each sample well of the incubation plate NCF60 to initiate the reaction. After the pre-incubation of the incubation plates Blank60, T5, T15, T30, T45, and T60 was completed, 98 µL of the NADPH regeneration system working solution was added to each sample well to initiate the reaction. The reaction temperature was 37±1 °C, the final volume of the reaction was 200 µL, and the reaction system included 0.5 mg/mL microsomes, 1.0 µM substrate, 1 mM NADP, 6 mM ISO, and 1 unit/mL IDH.
At 5 min, 15 min, 30 min, 45 min, and 60 min, a cold stop solution containing an internal standard was added to the reaction plate to stop the reaction.
All the reaction plates after the reaction was stopped were shaken well and centrifuged at 3220× g at 4 °C for 20 min. After the supernatant was diluted at a certain ratio, LC-MS/MS analysis was performed.
Sample analysis was performed by the liquid chromatography-tandem mass spectrometry (LC-MS/MS) method without standard curves and quality control samples. Semi-quantitative determination was performed according to the ratio of the analyte peak area to the internal standard peak area. The retention times of the analyte and internal standard, the chromatogram acquisition, and chromatogram integration were processed using the Analyst software (Sciex, Framingham, Massachusetts, USA).
According to the well stir model, the hepatic intrinsic clearance and hepatic clearance can be converted through the following formula. CL(liver) = (CLint(liver)×Qh)/(CLint(liver)+Qh) [formula]
(In general: Microsomes from liver hold many membrane-bound enzymes, among them those of drug oxidation.)

A short description of series [2]: Pharmacokinetic test in mice (low dose). The format is in vivo, Balb/c mice. As to conditions: mouse, mice; for AUC(0-t): read-out: AUClast; for clearance: read-out: Cl (converted); for half-life: read-out: T1/2 (converted); for bioavailability: PO 10 mg/kg vs IV 2 mg/kg, read-out: F%; for Cmax: read-out: Cmax.

Structures are written as SMILES. Read-outs that look alike come from different tables or passages of the source.

In series [1], `CP(C)(=O)c1ccc2c(c1)c1ccccc1n2-c1ccc(C(F)(F)F)cc1` [Example 1] came in with a half-life at 1 µM of more than 2.42 h. For the same compound, in series [2] (in vivo, IV 2 mg/kg), the MRT was determined as 6.1 h, the AUC(0-t) worked out at 30.7 µM·h, the clearance was 2.83 mL/min/kg and the half-life was 4.2 h. Further, in series [2] (in vivo, PO 10 mg/kg), the MRT turned out to be 6.5 h, the AUC(0-t) was 182 µM·h, the Cmax is 12.9 µM and the half-life is 3.9 h. Moreover, the bioavailability in series [2] (in vivo) stood at 118%.
`CP(C)(=O)c1ccc2c(c1)c1cccnc1n2-c1ccc(C(F)(F)F)cc1` [Example 5]: in series [2] (plasma, IV 2 mg/kg), the mean residence time (MRT) stood at 2.5 h, the AUC(0-t) was 9.37 µM·h, the clearance is 8.33 mL/min/kg and the half-life was 1.8 h. Also, in series [2] (plasma, PO 10 mg/kg), the MRT came to 5.3 h, the AUC(0-t) was determined as 155 µM·h, the Cmax was 15.5 µM and the half-life is 2.6 h. For the same compound, in series [2] (plasma), the bioavailability is 318%.
In series [1], `CP(C)(=O)c1ccc2c(Oc3ccc(C(F)(F)F)cc3)cccc2c1` [Example 7] returned a half-life at 1 µM of more than 2.42 h. Besides, in series [2] (in vivo, IV 2 mg/kg), the MRT was found to be 171 h, the AUC(0-t) amounted to 50.7 µM·h, the clearance was 0.25 mL/min/kg and the half-life is 120 h. Also, in series [2] (in vivo, PO 10 mg/kg), the MRT turned out to be 211 h, the AUC(0-t) is 267 µM·h, the Cmax came to 12.7 µM and the half-life is 146 h. In series [2] (in vivo), the bioavailability is 106%.
For `Cn1cnc(-c2cc(P(C)(C)=O)cnc2Nc2ccc(C(F)(F)F)cc2)c1` [Example 8], in series [1], the half-life at 1 µM was more than 2.42 h. Moreover, in series [2] (in vivo, IV 2 mg/kg), the MRT was 6.4 h, the AUC(0-t) was 7.94 µM·h, the clearance is 10 mL/min/kg and the half-life is 5.6 h. Also, in series [2] (in vivo, PO 10 mg/kg), the MRT was 47.2 h, the AUC(0-t) amounted to 119 µM·h, the Cmax was found to be 14.6 µM and the half-life is 34.2 h. In addition, the bioavailability in series [2] (in vivo) came out at 300%.
`CP(C)(=O)c1ccc(Nc2ccc(C(F)(F)F)cc2)c(-c2ccccn2)c1` [Example 10] came in with a half-life at 1 µM in series [1] of more than 2.42 h. In addition, in series [2] (plasma, IV 2 mg/kg), the mean residence time MRT was 75 h, the AUC(0-t) was 59.3 µM·h, the clearance was 0.4 mL/min/kg and the half-life is 52 h. Besides, in series [2] (plasma, PO 10 mg/kg), the MRT stood at 75.6 h, the AUC(0-t) amounted to 290 µM·h, the Cmax is 14.6 µM and the half-life is 28.2 h. Moreover, the bioavailability in series [2] (plasma) turned out to be 98%.
In series [1], `CP(C)(=O)c1ccc(Nc2ccc(C(F)(F)F)cc2)c(-c2ncccn2)c1` [Example 12] registered a half-life at 1 µM of more than 2.42 h. Moreover, in series [2] (plasma, IV 2 mg/kg), the MRT worked out at 23.4 h, the AUC(0-t) came to 58.8 µM·h, the clearance is 1 mL/min/kg and the half-life was 17.2 h. Besides, in series [2] (plasma, PO 10 mg/kg), the MRT is 34.5 h, the AUC(0-t) turned out to be 295 µM·h, the Cmax came to 16.1 µM and the half-life was 25.6 h. For the same compound, the bioavailability in series [2] (plasma) is 100%.
As for `Cn1cnc(-c2cc(P(C)(C)=O)ccc2Nc2ccc(C(F)(F)F)cc2)c1` [Example 14], the half-life at 1 µM in series [1] is more than 2.42 h. Also, in series [2] (in vivo, IV 2 mg/kg), the MRT was 26.2 h, the AUC(0-t) was determined as 21.2 µM·h, the clearance was 2.33 mL/min/kg and the half-life was 19 h. Also, in series [2] (in vivo, PO 10 mg/kg), the MRT is 17.8 h, the AUC(0-t) amounted to 112 µM·h, the Cmax came out at 8.08 µM and the half-life is 12.3 h. Moreover, in series [2] (in vivo), the bioavailability amounted to 106%.
In series [1], `CP(C)(=O)c1cnc(Nc2ccc(C(F)(F)F)cc2)c(-c2cn3c(n2)CCC3)c1` [Example 22] returned a half-life at 1 µM of more than 2.42 h. In addition, in series [2] (in vivo, IV 2 mg/kg), the MRT was determined as 10.8 h, the AUC(0-t) turned out to be 16.4 µM·h, the clearance is 4.17 mL/min/kg and the half-life is 8.9 h. For the same compound, in series [2] (in vivo, PO 10 mg/kg), the MRT came out at 9.9 h, the AUC(0-t) is 96.4 µM·h, the Cmax stood at 7.07 µM and the half-life is 7.6 h. Moreover, the bioavailability in series [2] (in vivo) was found to be 114%.
On to `Cc1ccc(Oc2ccc(C(F)(F)F)cc2)c2ccc(P(C)(C)=O)cc12` [Example 24], for which the half-life at 1 µM in series [1] is 2.77 h. For the same compound, in series [2] (in vivo, IV 2 mg/kg), the AUC(0-t) stood at 22.1 µM·h, the clearance was 3.3 mL/min/kg and the half-life is 11 h. Besides, in series [2] (in vivo), the bioavailability amounted to 120%. In addition, in series [2] (in vivo, PO 10 mg/kg), the AUC(0-t) worked out at 133 µM·h, the Cmax came out at 7.82 µM and the half-life was 16.2 h.
